Experimental findings from patent US20210230554A1, “GENERATION OF FUNCTIONAL BETA CELLS FROM HUMAN PLURIPOTENT STEM CELL-DERIVED ENDOCRINE PROGENITORS” (Novo Nordisk A/S, priority 2018, published 2021) are described below.

One experiment has as its system hPSC-derived beta cells. Description: Perfusion assay of dynamic human insulin secretion in vitro. Format: cell-based. The method, then:
Mature beta cells are functionally defined by their rapid response to elevate glucose. Secretion of human insulin by beta cells at the end of BC step 2 method with BC step 2 medium comprising 50 μM GABA, 10 μM Alk5i, 1 μM T3 was measured as repeated responses to 20 mM glucose±1 μM exendin-4 a GLP1-receptor agonist or ±the anti-diabetic sulfonylurea compound Tolbutamide within a perfusion system.
Briefly, groups of 300 hand-picked, clusters of hESC- or hiPSC-derived cell clusters were suspended with beads (Bio-Rad #150-4124) in plastic chambers of Biorep PERFUSION SYSTEM (Biorep #PERI-4.2). Under temperature and CO2-controlled conditions, the cells were perfused at 0.5 ml min−1 with a Krebs buffer. Prior to sample collection, cells were equilibrated under basal (2 mM glucose) conditions for 1 h. During perfusion cells were exposed to repeated challenges with 20 mM glucose±1 μM exendin-4 or ±100 μM Tolbutamide. At the end of perfusion, cells were exposed to cAMP-elevating agents (dbcAMP) on top of 20 mM glucose. Insulin secretion was measured by human insulin ELISA (Mercodia).

In experiment [1] the test system is endocrine progenitor cells. In words: BC step 1 screen: flow cytometry of INS, NKX6.1 and GCG expression. In kind it is cell-based, human. The conditions noted are these: added on top of BC step 1 medium comprising DZNEP, Alk5i, Heparin, Nicotinamide; FIG. 3. The method, then:
As a first step towards generating fully functional mature beta cells, we screened for factors to generate maximal numbers of immature INS+/NKX6.1+ cells (BC step 1 screen). […]
Compounds were screened for their ability to induce INS+, NKX6.1+ double positive immature BCs and few GCG positive cells within a 7 days period. Media change was performed daily. Cells were fixed at day 4 and day 7 of BC step 1 and analysed for INS NKX6.1 and GCG expression using flow cytometry (see Table 1 and FIG. 2). Briefly, differentiated endocrine cells were dispersed into single-cell suspension by incubation with TrypLE Express at 37° C. for 10 min. Differentiated endocrine cells were resuspended in 4% paraformaldehyde, washed in PBS followed by incubation with primary antibodies overnight and then secondary antibodies for 1 hour. The differentiated hPSCs co-expressed C-peptide+/NKX6.1+ with few cells expressing the α-cell hormone glucagon (FIG. 2). When quantified by flow cytometry, 48% of the cells co-expressed C-peptide+/NKX6-1 (FIG. 2), more than previously reported with stem cell-derived beta cells (Pagliuca et al., Cell. 2014 Oct. 9; 159(2):428-39. doi: 10.1016/j.cell.2014.09.040; Rezania et al., Nat Biotechnol. 2014 November; 32(11):1121-33. doi: 10.1038/nbt.3033. Epub 2014 Sep. 11).
Hits compounds of Table 2 have been identified in a primary screen.

Experiment [2] concerns stem cell-derived endocrine progenitor cells. In words: BC step 1 medium with or without Nicotinamide: BC FACS phenotype. Format: cell-based, human. The conditions noted are these: BC step 1 medium with or without 10 mM Nicotinamide, 4 days, then 2 days BC step 2; FIG. 16. How it is done: To evaluate the effect of Nicotinamide, stem cell-derived endocrine progenitor cells were differentiated in BC step 1 medium with or without Nicotinamide, followed by a culturing step in BC step 2 medium.
Cell were differentiated to endocrine progenitors and then subjected to BC step 1 medium for 4 days (BC step 1 medium comprises RPMI1640 with Glutamax, 0.1% Pen/Strep, 12% KOSR, 10 μM Alk5i, 1 μM T3, 1 μM DZNEP, 10 μg/ml heparin, 25 μM DAPT, and with or without 10 mM Nicotinamide).
Cells were then subjected to BC step 2 cell culture medium for 2 days before analysing by FACS. BC step 2 medium consisted of: RPMI1640 with Glutamax, 0.1% Pen/Strep, 12% KOSR, 50 μM GABA, 10 μM Alk5i, 1 μM T3 and 10 μM DZNEP.

Take exendin-4: the “level of insulin secretion in the hPSC-derived beta cells” value with hPSC-derived beta cells (20 mM glucose ± 1 μM exendin-4) is listed as “increased the level of insulin secretion”.

For the compound `C[C@H](NC(=O)Cc1cc(F)cc(F)c1)C(=O)NC(C(=O)OC(C)(C)C)c1ccccc1` (some centres unmarked) [DAPT], in experiment [1], the “number of INS+/NKX6.1+ cells” value is given as “highest number of INS+/NKX6.1+ cells”. As for `NC(=O)c1cccnc1` [Nicotinamide], the “BC FACS phenotype” value in experiment [2] is listed as “not affected”. For `CCCCNC(=O)NS(=O)(=O)c1ccc(C)cc1` [tolbutamide], the “effect on insulin secretion” value in the experiment with hPSC-derived beta cells (day 7 of BC step 2, 20 mM glucose ± 100 μM Tolbutamide) was “significant additive effect”.

As to Dibutyryl-cAMP [dbcAMP], the “number of INS+/NKX6.1+ cells” value in experiment [1] is reported as “highest number of INS+/NKX6.1+ cells”.
